Experimental findings from PubChem BioAssay AID179 (DTP/NCI, 2004) are described below.

Active and inactive are the calls of the source.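 How the source made its calls: active means compounds giving half or more protection of infected cells from virus-caused growth loss, again on retest; inactive means the rest.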 Where a SMILES comes first, the peptide text is derived from it. The star is where a group is joined. Cbz = O=C(OCc1ccccc1)*

For this assay, the system named is CEM cells HIV-1 protection, formazan growth assay. Briefly: NCI AIDS Antiviral Assay. The conditions noted are these: for IC50: measured here: growth of uninfected CEM cells. Summed up: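 Screen of anti-HIV-1 activity in human CEM cells using a formazan-based growth measurement at five drug concentrations. Hits with 50% or greater protection were repeated, and confirmation required reproducible complete protection.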

One may read the EC50 as the concentration that produces a half-maximal response. A word on the IC50: it is the midpoint of a concentration-inhibition curve. Read a high IC50 as lower potency. On to `O=C(CCC(=O)C1CCC/C1=N/O)Nc1ccc(Cl)cc1` (stereo unspecified), for which the EC50 is greater than 302 µM and the half-inhibitory concentration (IC50) is 1.12 µM.
For `O=C1/C(=C/c2ccc(Br)s2)NC(=S)N1c1ccccc1` the same measures were greater than 200 µM and 95.5 µM.
The corresponding values for `Cc1ccc(S(=O)(=O)C2=c3nc4ccccc4cc3=C3C(=O)c4ccccc4C(=O)C32)cc1` (stereo unspecified) are greater than 21.9 µM and greater than 21.9 µM.
For `O=c1[nH]c(=O)n2c3c1ncn3CC=CC2` the same measures were greater than 35.5 µM and 17 µM.
For `Cc1cc(N(CCC#N)CCC#N)ccc1/C=C(\N=[N+]=[N-])C(=O)NC(=O)COc1ccccc1`, the EC50 was greater than 8.32 µM and the IC50 was greater than 8.32 µM.
Turning to `CC(=O)Oc1ccccc1C(=O)Nc1ccc(S(=O)(=O)c2ccc(NC(=O)c3ccccc3OC(C)=O)cc2)cc1`, the EC50 was greater than 200 µM and the IC50 is greater than 200 µM.
Consider `CCOC(=O)CC1NC(=O)CS1` (stereo unspecified), for which the EC50 was greater than 138 µM and the half-inhibitory concentration (IC50) was greater than 138 µM.
`CC(=O)[O-].CC(=O)[O-].CC(=O)[O-].CC(=O)[O-].CO.CO.CO.[Rh+2].[Rh+2].c1ccc(-c2ccccn2)nc1`: the EC50 is 145 µM and the IC50 is 174 µM.
The corresponding values for `CC(C)/C=N\n1c(N)c(C#N)c(C#N)c1C(C)C` are greater than 200 µM and 63.1 µM.
For the compound `Sc1ccccc1C1N(Cc2ccc(Cl)cc2)CCCN1Cc1ccc(Cl)cc1`, the EC50 was greater than 100 µM and the IC50 turned out to be 5.75 µM.
Regarding `O=C1OC(C2Cc3ccc4c(c3C2=O)CCC4)c2ccccc21` (stereo unspecified), the EC50 was greater than 200 µM and the half-inhibitory concentration (IC50) was 81.3 µM.
As for `CC(C)=CC[P+](c1ccccc1)(c1ccccc1)c1ccccc1`, the EC50 was greater than 200 µM and the IC50 came out at 2.09 µM.
On to `O=C1N[C@@H]([C@H]2CC[C@H](Cl)CN2)C(=O)N[C@H]1[C@H]1CC[C@H](Cl)CN1`, for which the EC50 was greater than 5.89 µM and the IC50 came out at 0.0141 µM.
With `Cc1nc2ccccn2c1N=Nc1ccc(C(=O)NN)cc1`, the EC50 is greater than 33.9 µM and the 50% inhibitory concentration (IC50) is greater than 33.9 µM.
Regarding `O=C1/C(=C/c2ccccc2)CCC/C1=C\c1ccccc1`, the EC50 is greater than 200 µM and the half-maximal inhibitory concentration (IC50) came to 8.13 µM.
For the compound `Cc1[nH]c2ncn(N)c(=N)c2c1Cc1ccccc1`, the EC50 is greater than 200 µM and the half-maximal inhibitory concentration (IC50) was greater than 200 µM.
For `Cc1ccc(C)c(N2C/C(=N\NC(=O)CC#N)C(c3nc4ccccc4s3)C(=O)C2=O)c1` (stereo unspecified), the outcome was inactive.
Consider `CCN(CC)/C(SCc1ccccc1)=C(\C(Cl)=C(Cl)Cl)[N+](=O)[O-]`, for which the EC50 is greater than 200 µM and the IC50 stood at 34.7 µM.
Consider `COC(=O)C(=O)C(C(=O)C(=O)Nc1ccc([N+](=O)[O-])cc1[N+](=O)[O-])c1nc2ccc(Cl)cc2[nH]c1=O` (stereo unspecified), for which the EC50 was greater than 132 µM and the 50% inhibitory concentration (IC50) was greater than 132 µM.
As for `N=c1n(CC(=O)NC23CC4CC(CC(C4)C2)C3)c2ccccc2n1Cc1ccccc1`, the EC50 is greater than 79.4 µM and the concentration for half-maximal inhibition (IC50) came out at 14.1 µM.
Consider `CCOC(=O)c1cc(-c2ccc(-c3cc(C(=O)OCC)c(C#N)c(N)c3C#N)cc2)c(C#N)c(N)c1C#N`, for which the EC50 is greater than 26.9 µM and the IC50 was greater than 26.9 µM.
Turning to `COc1ccc(-n2c(N)c(C#N)c(C#N)c2-c2ccccc2)cc1`, the EC50 is greater than 200 µM and the half-maximal inhibitory concentration (IC50) came to 12 µM.
For `O=C1OC(/C=C/c2ccccc2)C(=O)C1=O` (stereo unspecified) the same measures were greater than 1150 µM and greater than 1150 µM.
The corresponding values for `O=C1CSC(=S)N1c1ccc(Cl)cc1` are greater than 148 µM and 56.2 µM.
For the compound `CCC1(CC=C(C)C)Oc2ccccc2-n2cccc2C1=O` (stereo unspecified), the result was active.
As to `O=S(c1ccc(Cl)cc1)c1ccccc1C1=NCCN1` (stereo unspecified), the EC50 was greater than 200 µM and the IC50 was greater than 200 µM.
In the case of `CCOC(=O)CCC(NC(=O)C(Cc1ccccc1)NC(=O)OCc1ccccc1)C(=O)OCC` (stereo not drawn) (Cbz-Phe-Glu(OEt)-OEt; configuration not given here), the EC50 was greater than 200 µM and the 50% inhibitory concentration (IC50) was 9.55 µM.
For the compound `N#C/C(=C/c1cccnc1)C(=O)c1ccccc1`, the EC50 is greater than 398 µM and the IC50 worked out at 67.6 µM.
In the case of `COc1cc(O)c(/C=N\O)c(OC)c1`, the EC50 was greater than 912 µM and the IC50 came out at 83.2 µM.
With `CN(C)CCC1(c2ccccc2)C=Cc2ccccc21` (stereo unspecified), the EC50 was greater than 200 µM and the IC50 stood at 107 µM.
In the case of `C#CC(OC(=O)NC1CCCCC1)(c1ccccc1)c1ccccc1`, the EC50 is greater than 200 µM and the concentration for half-maximal inhibition (IC50) was found to be 20.4 µM.
As for `CCOC(=O)/C(Cc1cc[n+]([O-])cc1)=N/O`, the outcome was inactive.
Regarding `O=C1CCCc2c(O)ccc(O)c21`, the EC50 was greater than 380 µM and the IC50 amounted to 60.3 µM.
The corresponding values for `CC(C)[C@@]12O[C@@H]1CC13OC1[C@@H](O)CC[C@@]32O` (stereo partly specified) are greater than 200 µM and greater than 200 µM.
Take `COc1ccc(NC(=O)C(/C=N\C(=S)NNC(C)=O)=C(\C)O)cc1`: the EC50 is greater than 200 µM and the 50% inhibitory concentration (IC50) is greater than 200 µM.
For the compound `CCCc1cc(-c2ccc(N=Nc3cc(S(=O)(=O)O)c4ccccc4c3N)c(CCC)c2)ccc1N=Nc1cc(S(=O)(=O)O)c2ccccc2c1N`, the EC50 is 105 µM and the IC50 stood at 182 µM.
For `COCCN(CCOC)C1C2=C(CCCC2)OS(=O)(=O)C1c1ccccc1` (stereo unspecified), the EC50 was greater than 66.1 µM and the IC50 is greater than 66.1 µM.
`C=C1CC(COc2ccc3c(C)c(C)c(=O)oc3c2C)(c2ccccc2)OC1=O` (stereo unspecified): the EC50 is greater than 200 µM and the half-maximal inhibitory concentration (IC50) amounted to 0.933 µM.
In the case of `CCN(CC)c1c(C(=O)/C=C/c2ccccc2)c(-c2ccccc2)nn(C)c1=O`, the EC50 is greater than 18.6 µM and the concentration for half-maximal inhibition (IC50) is 9.12 µM.
`C=C(C)CCC1CC=[N+]([O-])OC1C(C)(C)C` (stereo unspecified): the EC50 is greater than 200 µM and the IC50 amounted to 28.8 µM.
`COc1c2cc(C(C)(C)C)cc1CSCc1cc(C(C)(C)C)cc(c1OC)CCCCC2`: the EC50 is greater than 200 µM and the concentration for half-maximal inhibition (IC50) is greater than 200 µM.
With `COc1ccc2c(c1)C(=O)/C(=C/c1ccccc1)C2`, the EC50 was greater than 200 µM and the concentration for half-maximal inhibition (IC50) is 47.9 µM.
The corresponding values for `Cc1nc2ccncc2[nH]1` are greater than 269 µM and 191 µM.
Regarding `O=C1CC(c2ccccc2)n2c(nc3ccccc32)N1` (stereo unspecified), the EC50 was greater than 151 µM and the concentration for half-maximal inhibition (IC50) worked out at 67.6 µM.
Turning to `Cc1ccccc1NC(=S)N/N=C(/c1ccccc1)c1ccccn1`, the EC50 was greater than 0.2 µM and the IC50 worked out at 0.0676 µM.
On to `O=C1/C(=C/c2cccc(Cl)c2)CCCc2ccccc21`, for which the EC50 is greater than 200 µM and the IC50 stood at 11.7 µM.
`CCCC(=O)Nc1cc([N+](=O)[O-])c([N+](=O)[O-])cc1OC`: the EC50 was greater than 200 µM and the 50% inhibitory concentration (IC50) is 10.7 µM.
Regarding `CC(C)S(=O)(=O)ON1C(=O)c2ccc([N+](=O)[O-])cc2C1=O`, the EC50 is greater than 115 µM and the IC50 amounted to 18.2 µM.
For the compound `CCOP(=O)(OCC)/C(C#N)=C/c1cnc[nH]1`, the EC50 was greater than 200 µM and the IC50 is greater than 200 µM.
Consider `CCOP(=S)(N/N=C1\CC2CCC1C2)OCC` (stereo unspecified), for which the EC50 was greater than 200 µM and the half-inhibitory concentration (IC50) is greater than 200 µM.
As for `O=C(NC(=O)c1c(F)cccc1F)Nc1ccc(Br)cn1`, the EC50 is greater than 200 µM and the IC50 is greater than 200 µM.
As to `Cc1ccc(S(=O)(=O)OCC2COC(C)(C)O2)cc1` (stereo unspecified), the EC50 is greater than 871 µM and the IC50 was greater than 871 µM.
